Experimental data taken from BindingDB's records for patent US20230286970 (Italfarmaco, 2023).

Key:
Histone deacetylase 6 = target: T1, Histone deacetylase 6 (Homo sapiens, UniProt Q9UBN7); assay: Enzymatic Activity Assay
T1 sequence (Q9UBN7 whole entry): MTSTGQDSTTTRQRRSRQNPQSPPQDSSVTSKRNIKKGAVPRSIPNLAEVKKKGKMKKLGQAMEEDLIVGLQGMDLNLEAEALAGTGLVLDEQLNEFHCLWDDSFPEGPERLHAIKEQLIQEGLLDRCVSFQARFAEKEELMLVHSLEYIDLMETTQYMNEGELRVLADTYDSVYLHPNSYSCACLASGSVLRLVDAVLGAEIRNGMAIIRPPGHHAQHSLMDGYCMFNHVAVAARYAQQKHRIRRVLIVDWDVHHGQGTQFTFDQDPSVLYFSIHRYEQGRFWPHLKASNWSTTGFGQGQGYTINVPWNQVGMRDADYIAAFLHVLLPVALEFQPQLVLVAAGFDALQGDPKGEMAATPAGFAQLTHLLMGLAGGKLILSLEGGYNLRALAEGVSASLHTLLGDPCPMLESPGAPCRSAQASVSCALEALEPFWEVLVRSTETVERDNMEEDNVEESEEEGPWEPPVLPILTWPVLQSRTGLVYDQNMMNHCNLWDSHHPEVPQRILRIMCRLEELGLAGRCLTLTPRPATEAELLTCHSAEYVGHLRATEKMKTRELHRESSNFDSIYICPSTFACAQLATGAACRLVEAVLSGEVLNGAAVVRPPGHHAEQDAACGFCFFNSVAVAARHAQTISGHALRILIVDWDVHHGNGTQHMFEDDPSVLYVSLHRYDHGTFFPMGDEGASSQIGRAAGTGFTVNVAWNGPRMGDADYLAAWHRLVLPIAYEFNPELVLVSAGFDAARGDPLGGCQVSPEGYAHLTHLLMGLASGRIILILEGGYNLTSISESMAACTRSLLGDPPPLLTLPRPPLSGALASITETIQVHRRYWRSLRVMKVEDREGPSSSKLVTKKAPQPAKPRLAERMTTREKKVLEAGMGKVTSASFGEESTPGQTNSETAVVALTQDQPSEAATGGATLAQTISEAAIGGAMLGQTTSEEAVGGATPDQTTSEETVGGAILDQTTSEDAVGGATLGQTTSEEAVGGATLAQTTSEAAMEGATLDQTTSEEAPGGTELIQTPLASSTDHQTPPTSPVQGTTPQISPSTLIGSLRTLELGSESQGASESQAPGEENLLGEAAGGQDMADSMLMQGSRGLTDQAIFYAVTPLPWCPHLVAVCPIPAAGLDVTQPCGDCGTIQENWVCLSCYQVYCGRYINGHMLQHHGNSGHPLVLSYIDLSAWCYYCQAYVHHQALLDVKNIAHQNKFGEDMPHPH
Description: (§1) After a period of preincubation (incubation times and temperatures vary for different isoforms and are shown in table 1) 25 μL of solution containing the substrate were added. […] Enzymatic activity on recombinant human HDAC6 and HDAC1 was evaluated (Table 2) for each synthesized compound.

Histone deacetylase 1 = Histone deacetylase 1 (Homo sapiens, UniProt Q13547); assay: Enzymatic Activity Assay
Description: as §1

Chain of Histone deacetylase 1 (Q13547 whole entry): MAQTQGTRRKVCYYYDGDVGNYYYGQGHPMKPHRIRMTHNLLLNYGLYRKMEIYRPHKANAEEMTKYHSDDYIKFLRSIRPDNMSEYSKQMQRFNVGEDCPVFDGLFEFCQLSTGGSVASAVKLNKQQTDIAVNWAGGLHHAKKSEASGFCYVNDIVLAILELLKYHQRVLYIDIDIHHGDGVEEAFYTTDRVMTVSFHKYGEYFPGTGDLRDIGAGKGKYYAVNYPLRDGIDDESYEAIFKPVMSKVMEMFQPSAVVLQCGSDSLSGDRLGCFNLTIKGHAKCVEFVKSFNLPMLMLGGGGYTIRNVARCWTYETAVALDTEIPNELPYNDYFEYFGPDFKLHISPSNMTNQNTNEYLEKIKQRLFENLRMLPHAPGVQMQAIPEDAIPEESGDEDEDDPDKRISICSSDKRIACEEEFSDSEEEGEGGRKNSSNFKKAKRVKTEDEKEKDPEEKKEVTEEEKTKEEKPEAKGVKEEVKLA

IC50 (Histone deacetylase 6)	IC50 (Histone deacetylase 1)	Structure (SMILES)
25 nM	> 200000 nM	O=C1NCc2ccc(-c3nnn(Cc4c(F)cc(-c5nnc(C(F)F)o5)cc4F)n3)cc21 [US20230286970, Compound 57]
24 nM	> 200000 nM	O=C1NCc2ccc(-c3nnn(Cc4ccc(-c5nnc(C(F)F)o5)cc4)n3)cc21 [US20230286970, Compound 55]
70 nM	> 200000 nM	O=C1Nc2ccc(-c3nnn(Cc4ccc(-c5nnc(C(F)F)o5)cc4)n3)cc2NC12CCCCC2 [US20230286970, Compound 157]
63 nM		Nc1ncnc2sc(-c3cn(Cc4ccc(-c5nnc(C(F)F)o5)c(F)c4F)nn3)cc12 [US20230286970, Compound 384]
23 nM		Nc1ccc(-c2cn(Cc3ccc(-c4nnc(C(F)F)o4)cc3)nn2)cn1 [US20230286970, Compound 52]
18 nM	> 200000 nM	Nc1ncc(-c2cccc(-c3nnn(Cc4ccc(-c5nnc(C(F)F)o5)cn4)n3)c2)s1 [US20230286970, Compound 38]
20 nM	163000 nM	NCc1ccc(-c2cn(Cc3c(F)cc(-c4nnc(C(F)F)o4)cc3F)nn2)cc1 [US20230286970, Compound 44]
225 nM	> 200000 nM	CCN(Cc1cn(Cc2c(F)cc(-c3nnc(C(F)F)o3)cc2F)nn1)C(=O)Nc1cccnc1OC [US20230286970, Compound 283]
480 nM	> 200000 nM	O=C(O)c1cccc(-c2nnn(Cc3ccc(-c4nnc(C(F)F)o4)cc3)n2)c1 [US20230286970, Compound 260]
10 nM	> 200000 nM	NC(=O)c1cccc(-c2nnn(Cc3ccc(-c4nnc(C(F)F)o4)cn3)n2)c1 [US20230286970, Compound 29]
515 nM		Nc1ccc(-n2cc(Cc3ccc(-c4nnc(C(F)F)o4)cc3)nn2)cn1 [US20230286970, Compound 413]
41 nM		C[C@H](c1ccc(-c2nnc(C(F)F)o2)cc1)n1cc(-c2ccc(N)nc2)nn1 [US20230286970, Compound 106]
99 nM	> 200000 nM	COc1ncc(NCc2ccc(-n3cc(Cc4ccc(-c5nnc(C(F)F)o5)cc4)nn3)cc2)cc1C(N)=O [US20230286970, Compound 286]
41 nM	> 200000 nM	FC(F)c1nnc(-c2cnc(Cn3nnc(-c4cccs4)n3)nc2)o1 [US20230286970, Compound 187]
377 nM		C[C@@H](c1ccc(-c2nnc(C(F)F)o2)cc1)n1cc(-c2ccc(N)nc2)nn1 [US20230286970, Compound 255]
25 nM	> 200000 nM	Oc1ccc(-c2nnn(Cc3ccc(-c4nnc(C(F)F)o4)cc3)n2)cc1 [US20230286970, Compound 56]
373 nM	> 200000 nM	O=C(O)c1cccc(-c2cn(Cc3ccc(-c4nnc(C(F)F)o4)cc3)nn2)c1 [US20230286970, Compound 275]
14 nM	> 200000 nM	NCc1ccc(-c2nnn(Cc3c(F)cc(-c4nnc(C(F)F)o4)cc3F)n2)cc1 [US20230286970, Compound 33]
49 nM		Nc1ncnc2sc(-c3cn(Cc4cc(F)c(-c5nnc(C(F)F)o5)cc4F)nn3)cc12 [US20230286970, Compound 415]
247 nM		CN(C)c1ccc2cc(-c3cn(Cc4c(F)cc(-c5nnc(C(F)F)o5)cc4F)nn3)ccc2n1 [US20230286970, Compound 399]
154 nM	> 200000 nM	CN(C)C(=Nc1ccc(-c2cn(Cc3ccc(-c4nnc(C(F)F)o4)cc3)nn2)cc1)N(C)C [US20230286970, Compound 217]
